We go through one compound from patent publication US20220313600A1, “FORMULATIONS OF PSMA IMAGING AGENTS” (Clarity Pharmaceuticals Limited, priority 2019, published 2022).

A short description of series [1]: Degradation of the compound of Formula (I) when the radiolabelling mixture is mixed at raised temperature. The series is classed as physicochemical. Conditions: temperatures higher than about 40° C., for example 60° C.; mixture with Cu radioisotope and acetate buffer. The source says: The solution comprising the mixture of the Cu radioisotope, the compound of Formula (I) and the acetate buffer is then allowed to mix for a time and at a particular temperature in order to allow for complexation of the compound of Formula (I) with the Cu radioisotope. The solution may be mixed using an appropriate apparatus. For example, given the small volumes used, an Eppendorf tube may be an appropriate vessel, such that an Eppendorf Thermomixer may be used to both mix and if required, heat the solution. In an embodiment, the solution is mixed at room temperature. In an embodiment, the solution is mixed at about 40° C. […] While a lower temperature of about 21° C., i.e. room temperature, may be used for mixing, the complexation reaction may not be complete at 5 minutes but is completed by about 15 minutes. […] In an embodiment, the solution is mixed at about 40° C. for about 5 minutes. In an embodiment, the solution is mixed at about 40° C. for about 10 minutes. In another embodiment, the solution is mixed at about 40° C. for about 15 minutes. In another embodiment, the solution is mixed at about 21° C. for about 10 minutes. In another embodiment, the solution is mixed at about 21° C. for about 15 minutes.

A short description of series [2]: Stability of the compound of Formula (I) formulated as an aqueous solution. Format: physicochemical. The source says: One approach to overcome the observed instability may be to add one or more components that are antioxidants and/or stabilizing agents to the formulation, however the inclusion of further components to a formulation introduces potential reactivity issues between the compound of Formula (I) and these added components. For instance, the addition of an antioxidant may in fact react with the compound of Formula (I) thus potentially changing the structure and function of the compound, which is undesirable.

`O=C(O)CCC(NC(=O)NC(CCCCNC(=O)CCCCCCCNC(=O)C(Cc1ccccc1)NC(=O)C(Cc1ccccc1)NC(=O)CCCC(=O)NC12CNCCNCC(NC(=O)CCCC(=O)NC(Cc3ccccc3)C(=O)NC(Cc3ccccc3)C(=O)NCCCCCCCC(=O)NCCCCC(NC(=O)NC(CCC(=O)O)C(=O)O)C(=O)O)(CNCCNC1)CNCCNC2)C(=O)O)C(=O)O` (stereo not drawn) [Formula (I), Sar-bisPSMA]: the “degradation of the compound on heating” value in series [1] was “some degradation”. Also, the “stability of the compound in aqueous solution” value in series [2] (formulated as an aqueous solution, no buffer or stabilizing agent) was “relatively unstable and prone to oxidation and degradation”. For the same compound, the “stability of the compound in a formulation containing a buffer” value in series [2] (formulation containing a buffer, in the absence of a stabilizing agent) is listed as “requisite stability”.
